Here are results for 2 molecules from patent publication US4959368A, “Therapeutic agent for neurological diseases” (Mitsui Petrochemical Industries Ltd., priority 1986, dated 1990).

For data set [1], the system named is rats with crushed sciatic nerves. The data set is described as follows: Curative effect on rats with crushed sciatic nerves. The class given is in vivo, rat (male Wistar). Particulars: for Rate of recovery in muscle weight: soleus muscle, saline 51.8 ± 1.2. The procedure: Curative effect on rats with crushed sciatic nerves:
The curing effect of the compound (I) of the invention was tested on rats having crushed scietic nerves as a model of peripheral nervous disorder using (1) a change in the action of the hind paw with the crushed sciatic nerves and (2) a change in the weight of the muscle as an index of the course of degeneration and regeneartion of peripheral nerves.
In the experiment, male Wistar rats (6 weeks old), seven per group, were used. The sciatic nerves were crushed by a method similar to the method of Yamatsu et al. (see Kiyomi Yamatsu, Takenori Kaneko, Akifumi Kitahara and Isao Ohkawa, Journal of Japanese Pharmacological Society, 72, 259-268 (1976) and the method of Hasegawa et al. (see Kazuo Hasegawa, Naoji Mikuni and Yutaka Sakai, Journal of Japanese Pharmacological Society, 74, 721-734 (1978). Specifically, under anesthesia with pentobarbital (40 mg/kg, i.p.), the left side sciatic nerve was exposed at the femur and that site of the exposed scietic nerve which was 5 mm to the center from the branched part between the N. tibialis and the N. suralis was crushed using a modified artery, klomme, having a width of 2 mm and a gap of 0.1 mm. After the operation, the rats were assigned to the test groups at random.
Compound No. 408 was selected as the compound (I) of the invention and intraperitoneally administered to the rats once a day from the day of operation to the 22nd day. A group to which mecobalamin (made by Gedeon Richter Ltd.) was administered and a group to which 0.9% saline was administered were used as controls. The following items were measured with the lapse of time (on the 1st, 4th, 7th, 10th, 14th, 17th, 21st, and 23rd days after the crushing of the scietic nerves).
(1) Change in the action of the side of the hind paw with the crushed scietic nerve:
By a method similar to the method of Hasegawa [Hasegawa, K., Experientia, 34, 750-751 (1978)], the distance between the first and fifth digits of the hind paw was measured.
The ratio of the measured distance to the normal distance was calculated and expressed in percentage (%).
(2) Change in the weight of muscle
It is known that removal of a nerve or its disorder causes atrophy of the muscle which is under its control, and the atrophy is gradually cured by re-control by the nerve. For this reason, a change in the weight of the muscle, which is quantitative, was selected as an index. Twenty-three days after the operation, the soleus muscles of both sides of paws were extracted under anesthesia with pentobarbital, and their weights were measured. The ratio of the weight of the soleus muscle on the crushed side to that of normal side was calculated and expressed in percentage (%).

For another data set, the system named is mice. The experiment in a line: Acute toxicity, mouse. The format is in vivo. Particulars: 24 hours; for Number of dead animals/number of test animals: Table 7, 1000 mg/kg p.o.; for Presumed LD50: Table 7, p.o. As to the method: The acute toxicity of the compounds of the invention was examined by the following method.
Male ddy-strain 5-week old mice and male Wistar-strain 8 week old rats, five per group, were used as experimental animals. Each of the compounds was dissolved in saline and administered perorally, and the toxicity of the compound was assessed 24 hours after the administration.

Data set [2] concerns rats with lesioned nigral dopaminergic nerve cells. The data set is described as follows: Methamphetamine-induced rotational movement of rats with lesioned nigral dopaminergic nerve cells after transplantation of fetal cerebral cells. The class given is in vivo, rat (female Wistar). Conditions: number within one minute. The procedure:
Rats and mice models of central nervous disorders were prepared, and the pharmacological effects of the compounds (I) of this invention were tested. Specifically, nigral dopamine cells of the rat brain were chemically destroyed by injecting a very small amount of 6-hydroxydopamineto induce motor imbalance. Two weeks later, dopamine cells of fetal brain were transplanted in the caudate nucleus into the lesioned side of the rat brain and an attempt was made to improve the motor trouble. Specifically, beginning on the day of transplantation, the compound (I) of the invention was intraperitoneally administered every day over 2 weeks, and the activity of the compounds (I) of the invention on the improvement of the motor imbalance and the growth of the transplanted cells was examined.
Promoting effect on the improvement of motor imbalance due to injury of the rat's brain cells by transplantation of fetal cerebral cells:
Nigral dopaminergic nerve cells at the left side of the brain of 4-week old female Wistar rats (body weight 100 g) were lesioned by injecting a very small quantity of 6-hydroxydopamine. […] Upon administration of methamphethamine (5 mg/kg, i.p.) to the rats having the lesioned nigral dopaminergic nerve cells, they began rotational movement toward the lesioned side.
After two weeks from the destruction by the administration of the drug, portions of the […] containing dopamine cells (i.e., substantia nigra and the tagmentum at the abdomen side) were cut from the brain of a fetal rat of 14 to 17 days of age, cut finely, and treated with trypsin. Then, the extracted tissues were incubated at 37° C. for 30 minutes, and the tissues were subjected to pipetting to form a suspension. Five microliters of the suspension was transplanted each into two sites of the caudate nucleus of the lesioned side (10 microliters in total, about 10^5 cells).
Each of the compounds (I) in a dose of 100 mg/kg (i.p.) was administered every day over two weeks from the day of transplantation. The rotational movements induced by administration of methamphetamine were examined 2 weeks and 1 week before, and 2 weeks and 4 weeks after, the transplantation and the administration of the drug. The number of rotational movements within one minute was counted at intervals of 10 minutes after the administration of methamphetamine, and the total number of rotational movements counted six times was averaged to find a mean number of the rotational movements.

[3] abbreviates: Run No. 1, 1 week before transplantation, saline 12.23 ± 4.88.
The mark [4] stands for this setting: Run No. 1, 2 weeks after transplantation, 100 mg/kg i.p. daily over two weeks, saline 5.9 ± 2.75.
The mark [5] stands for this setting: Run No. 1, 2 weeks before transplantation, saline 10.9 ± 4.57.
Setting [6] is: Run No. 1, 4 weeks after transplantation, 100 mg/kg i.p. daily over two weeks, saline 3 ± 3.23.
[7] abbreviates: Run No. 2, 1 week before transplantation, saline 10 ± 5.3.
[8] abbreviates: Run No. 2, 2 weeks after transplantation, 100 mg/kg i.p. daily over two weeks, saline 4.4 ± 5.9.
The mark [9] stands for this setting: Run No. 2, 2 weeks before transplantation, saline 12 ± 3.95.
Where [10] appears, read: Run No. 2, 4 weeks after transplantation, 100 mg/kg i.p. daily over two weeks, saline 1.5 ± 3.2.

With `CN1C(=O)Cc2cnc(N3CCNCC3)nc21` [Compound 408], the “Rate of recovery of the interdigit distance” value in data set [1] (21st day, 3 mg/kg ip once a day, saline 62.0 ± 2.4) is reported as 70.9 ± 3.5%; in data set [1] (21st day, 10 mg/kg ip once a day, saline 62.0 ± 2.4, *P < 0.05) it was 74.9 ± 3.1%; in data set [1] (21st day, 30 mg/kg ip once a day, saline 62.0 ± 2.4, ***P < 0.001) it was 79.6 ± 2.9%; in data set [1] (21st day, 100 mg/kg ip once a day, saline 62.0 ± 2.4), 68.9 ± 4.3%; in data set [1] (23rd day, 3 mg/kg ip once a day, saline 71.1 ± 3.4), 80.1 ± 3.6%; in data set [1] (23rd day, 10 mg/kg ip once a day, saline 71.1 ± 3.4, *P < 0.05) it was 82.3 ± 2.7%. Also, the “Rate of recovery of the interdigit distance” value in data set [1] (23rd day, 30 mg/kg ip once a day, saline 71.1 ± 3.4, *P < 0.05) worked out at 85.4 ± 4.1%; in data set [1] (23rd day, 100 mg/kg ip once a day, saline 71.1 ± 3.4), 77.3 ± 6.0%. The “Rate of recovery in muscle weight” value was 58.0 ± 2.0% in data set [1] (23rd day, 3 mg/kg ip, *P < 0.05); 59.4 ± 2.2% in data set [1] (23rd day, 10 mg/kg ip, *P < 0.05); 59.3 ± 2.7% in data set [1] (23rd day, 30 mg/kg ip, *P < 0.05); 63.9 ± 3.5% in data set [1] (23rd day, 100 mg/kg ip, *P < 0.05). In the data set with mice (1000 mg/kg), the “Number of dead animals/number of test animals” value is reported as 0/5. The “Presumed LD50” value in the data set on mice is given as greater than 1000 mg/kg p.o. The “Number of rotational movements (mean ± S.D.)” value (shortened to “Number of rotational movements”) in data set [2] (setting [3]) was found to be 12.27 ± 2.48; in data set [2] (setting [4]), 4.9 ± 2.38; in data set [2] (setting [5]), 8.57 ± 2.36; in data set [2] (setting [6]), 2.03 ± 1.56; in data set [2] (setting [7]), 11.06 ± 4.5; in data set [2] (setting [8]), 1.94 ± 2.0. Besides, the figures for the “Number of rotational movements” value in data set [2] (setting [9]) and in data set [2] (setting [10]) were 10.94 ± 6.4 and 1.53 ± 2.1, respectively.

For the molecule `CN1Cc2nc(N3CCNCC3)ncc2C1=O` [Compound 604], the “Number of dead animals/number of test animals” value with mice was 0/5. The “Presumed LD50” value in the data set on mice (1440 min) is listed as greater than 1000 mg/kg p.o. Also, the “Number of rotational movements” value was 10.4 ± 5.75 in data set [2] (setting [3]); 2.99 ± 2.91 in data set [2] (setting [4]); 10.6 ± 3.82 in data set [2] (setting [5]); 3.37 ± 1.65 in data set [2] (setting [6]); 11.28 ± 4.0 in data set [2] (setting [7]); 1.03 ± 2.9 in data set [2] (setting [8]). The “Number of rotational movements” value in data set [2] (setting [9]) stood at 13.33 ± 4.9; in data set [2] (setting [10]), 0.75 ± 2.8.
